Experimental data as given in ChEMBL document CHEMBL1152040, “The stereochemical requirements of the novel -opioid selective dipeptide antagonist TMT-Tic” (Bioorg Med Chem Lett, 1997).

Tests used:
[1] = target: Delta-type opioid receptor (Mus musculus, UniProt P32300); assay: The compound was evaluated for the binding affinity towards delta-opioid receptor by displacement of [3H]p-CI-DPDPE radioligand from mouse vas deferens; format: tissue-based
Mu-type opioid receptor = Mu-type opioid receptor (Cavia porcellus, UniProt P97266); assay: The compound was evaluated for the binding affinity towards mu-opioid receptor by displacement of [3H]DAMGO radioligand from guinea pig ileum; format: tissue-based
Sequence of Mu-type opioid receptor (P97266 whole entry): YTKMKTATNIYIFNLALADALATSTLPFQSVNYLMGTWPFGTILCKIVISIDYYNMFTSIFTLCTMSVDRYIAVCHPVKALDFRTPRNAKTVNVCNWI

Sequence of Delta-type opioid receptor (P32300 whole entry): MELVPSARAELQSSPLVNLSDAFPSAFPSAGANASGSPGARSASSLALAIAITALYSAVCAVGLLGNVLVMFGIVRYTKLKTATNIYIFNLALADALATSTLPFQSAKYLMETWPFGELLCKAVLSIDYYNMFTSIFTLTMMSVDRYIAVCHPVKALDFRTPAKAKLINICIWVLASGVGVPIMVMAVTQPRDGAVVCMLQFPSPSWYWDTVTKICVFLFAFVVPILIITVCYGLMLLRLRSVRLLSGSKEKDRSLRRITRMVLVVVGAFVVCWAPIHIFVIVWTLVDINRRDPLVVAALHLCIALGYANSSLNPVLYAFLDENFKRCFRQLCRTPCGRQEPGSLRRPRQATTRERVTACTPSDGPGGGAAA

Row | SMILES | IC50 [1] [µM] | IC50 (Mu-type opioid receptor) [µM] | Ki [1] [µM] | Ki (Mu-type opioid receptor) [µM]
1 | Cc1cc(O)cc(C)c1C(C)C(NC(=O)OC(C)(C)C)C(=O)N1Cc2ccccc2C[C@H]1C(=O)OCc1ccccc1 (some centres not stated) | 0.019 | 8.4 | – | –
2 | Cc1cc(O)cc(C)c1[C@H](C)[C@@H](N)C(=O)N1Cc2ccccc2C[C@H]1C(=O)O | > 10 | > 80 | – | –
3 | Cc1cc(O)cc(C)c1[C@H](C)[C@H](N)C(=O)N1Cc2ccccc2C[C@H]1C(=O)O | 0.124 | > 80 | – | –
4 | Cc1cc(O)cc(C)c1[C@@H](C)[C@@H](N)C(=O)N1Cc2ccccc2C[C@H]1C(=O)O | > 10 | > 80 | – | –
5 | Cc1cc(O)cc(C)c1[C@@H](C)[C@H](N)C(=O)N1Cc2ccccc2C[C@H]1C(=O)O | 0.0093 | 35 | – | –
6 | NC(Cc1ccc(O)cc1)C(=O)N1Cc2ccccc2C[C@H]1C(=O)O (single isomer, unassigned) | – | – | 0.191 | 28.4
